From paper PMC13311170, “Ganaxolone, an approved therapy for CDKL5-deficiency disorder, is an inhibitor of PTP1B” (The Journal of Biological Chemistry, 2026)

Biological target: T1, PTP1B (Homo sapiens, UniProt P18031)
T1 construct: gene PTPN1; WT PTP1B containing a His-tag
T1 sequence (P18031 1-435): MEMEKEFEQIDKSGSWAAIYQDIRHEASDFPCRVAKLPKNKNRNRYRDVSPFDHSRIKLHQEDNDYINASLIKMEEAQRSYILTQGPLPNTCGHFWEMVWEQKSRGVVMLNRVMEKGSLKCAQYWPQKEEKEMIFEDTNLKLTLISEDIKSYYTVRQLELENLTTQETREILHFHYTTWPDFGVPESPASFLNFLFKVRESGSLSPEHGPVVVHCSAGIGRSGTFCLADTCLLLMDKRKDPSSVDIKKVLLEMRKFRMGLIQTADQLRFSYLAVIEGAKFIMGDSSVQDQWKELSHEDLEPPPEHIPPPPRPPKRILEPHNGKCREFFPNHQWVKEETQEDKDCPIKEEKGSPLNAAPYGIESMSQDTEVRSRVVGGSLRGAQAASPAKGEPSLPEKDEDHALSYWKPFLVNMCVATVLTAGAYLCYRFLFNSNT
Test: DiFMUP fluorescence phosphatase assay with […] purified PTP1B
Assay type: biochemical

SMILES: CC(=O)[C@H]1CC[C@H]2[C@@H]3CC[C@H]4C[C@](C)(O)CC[C@]4(C)[C@H]3CC[C@]12C [ganaxolone, 3α-Hydroxy-3β-methyl-5α-pregnan-20-one]
- IC50: 600 nM
